Measurements published in ChEMBL document CHEMBL3588800, “Novel Bioactive Hybrid Compound Dual Targeting Estrogen Receptor and Histone Deacetylase for the Treatment of Breast Cancer” (J Med Chem, 2015).

Experiments:
Estrogen receptor [1] = target: T1, Estrogen receptor (Homo sapiens, UniProt P03372); assay: Agonist activity at ER-alpha (unknown origin) transfected in HEK293T cells assessed as stimulation of transcriptional activity after 24 hrs by luciferase reporter gene assay; assay type: cell-based, HEK-293T
T1 sequence (P03372 whole entry): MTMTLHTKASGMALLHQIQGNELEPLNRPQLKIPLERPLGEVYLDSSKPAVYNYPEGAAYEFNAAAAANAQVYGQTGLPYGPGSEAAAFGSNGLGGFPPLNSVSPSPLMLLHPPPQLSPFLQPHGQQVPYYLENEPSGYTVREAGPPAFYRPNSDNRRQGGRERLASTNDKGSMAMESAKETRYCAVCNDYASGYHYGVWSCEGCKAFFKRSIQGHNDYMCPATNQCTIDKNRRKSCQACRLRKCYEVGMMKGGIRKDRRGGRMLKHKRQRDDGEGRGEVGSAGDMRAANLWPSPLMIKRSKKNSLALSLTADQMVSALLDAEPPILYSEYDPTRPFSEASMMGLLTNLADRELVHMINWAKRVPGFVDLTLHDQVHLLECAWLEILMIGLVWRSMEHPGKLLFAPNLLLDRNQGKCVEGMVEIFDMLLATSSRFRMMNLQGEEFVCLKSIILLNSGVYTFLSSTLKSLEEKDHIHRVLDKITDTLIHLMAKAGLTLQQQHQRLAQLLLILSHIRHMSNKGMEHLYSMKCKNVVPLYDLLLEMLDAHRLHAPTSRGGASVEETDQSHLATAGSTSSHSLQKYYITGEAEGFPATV

Vero = assay: cells; assay type: ADME, cell-based; conditions: Chlorocebus sabaeus, 72 h
Estrogen receptor beta [2] = target: T2, Estrogen receptor beta (Homo sapiens, UniProt Q92731); assay: Agonist activity at ER-beta (unknown origin) transfected in HEK293T cells assessed as stimulation of transcriptional activity after 24 hrs by luciferase reporter gene assay relative to 17-beta estradiol; assay type: cell-based; conditions: HEK-293T
MCF7 = assay: cells; assay type: functional, cell-based; conditions: Homo sapiens, MCF7, 72 h
DU-145 = assay: cells; assay type: functional, cell-based; conditions: Homo sapiens, DU-145, 72 h
[3] = target: T3, Estrogen receptor (Homo sapiens) (UniProt P03372); assay: Antagonist activity at ER-alpha (unknown origin) transfected in HEK293T cells assessed as inhibition of transcriptional activity after 24 hrs by luciferase reporter gene assay relative to 17-beta estradiol; assay type: cell-based; conditions: HEK-293T
T3 sequence (whole entry): T1 sequence (P03372 whole entry)

Estrogen receptor beta [4] = target: T2, Estrogen receptor beta; assay: Antagonist activity at ER-beta (unknown origin) transfected in HEK293T cells assessed as inhibition of transcriptional activity after 24 hrs by luciferase reporter gene assay relative to 17-beta estradiol; assay type: cell-based; conditions: HEK-293T
[5] = target: T3, Estrogen receptor (Homo sapiens); assay: Agonist activity at ER-alpha (unknown origin) transfected in HEK293T cells assessed as stimulation of transcriptional activity after 24 hrs by luciferase reporter gene assay relative to 17-beta estradiol; assay type: cell-based; conditions: HEK-293T
Histone deacetylase 1 = Histone deacetylase 1 (Homo sapiens, UniProt Q13547); assay: Inhibition of human recombinant HDAC1 after 15 mins by fluorogenic assay
[6] = target: T4, Protein deacetylase HDAC6 (Homo sapiens, UniProt Q9UBN7); assay: Inhibition of human recombinant HDAC6 after 15 mins by fluorogenic assay
T4 sequence (Q9UBN7 whole entry): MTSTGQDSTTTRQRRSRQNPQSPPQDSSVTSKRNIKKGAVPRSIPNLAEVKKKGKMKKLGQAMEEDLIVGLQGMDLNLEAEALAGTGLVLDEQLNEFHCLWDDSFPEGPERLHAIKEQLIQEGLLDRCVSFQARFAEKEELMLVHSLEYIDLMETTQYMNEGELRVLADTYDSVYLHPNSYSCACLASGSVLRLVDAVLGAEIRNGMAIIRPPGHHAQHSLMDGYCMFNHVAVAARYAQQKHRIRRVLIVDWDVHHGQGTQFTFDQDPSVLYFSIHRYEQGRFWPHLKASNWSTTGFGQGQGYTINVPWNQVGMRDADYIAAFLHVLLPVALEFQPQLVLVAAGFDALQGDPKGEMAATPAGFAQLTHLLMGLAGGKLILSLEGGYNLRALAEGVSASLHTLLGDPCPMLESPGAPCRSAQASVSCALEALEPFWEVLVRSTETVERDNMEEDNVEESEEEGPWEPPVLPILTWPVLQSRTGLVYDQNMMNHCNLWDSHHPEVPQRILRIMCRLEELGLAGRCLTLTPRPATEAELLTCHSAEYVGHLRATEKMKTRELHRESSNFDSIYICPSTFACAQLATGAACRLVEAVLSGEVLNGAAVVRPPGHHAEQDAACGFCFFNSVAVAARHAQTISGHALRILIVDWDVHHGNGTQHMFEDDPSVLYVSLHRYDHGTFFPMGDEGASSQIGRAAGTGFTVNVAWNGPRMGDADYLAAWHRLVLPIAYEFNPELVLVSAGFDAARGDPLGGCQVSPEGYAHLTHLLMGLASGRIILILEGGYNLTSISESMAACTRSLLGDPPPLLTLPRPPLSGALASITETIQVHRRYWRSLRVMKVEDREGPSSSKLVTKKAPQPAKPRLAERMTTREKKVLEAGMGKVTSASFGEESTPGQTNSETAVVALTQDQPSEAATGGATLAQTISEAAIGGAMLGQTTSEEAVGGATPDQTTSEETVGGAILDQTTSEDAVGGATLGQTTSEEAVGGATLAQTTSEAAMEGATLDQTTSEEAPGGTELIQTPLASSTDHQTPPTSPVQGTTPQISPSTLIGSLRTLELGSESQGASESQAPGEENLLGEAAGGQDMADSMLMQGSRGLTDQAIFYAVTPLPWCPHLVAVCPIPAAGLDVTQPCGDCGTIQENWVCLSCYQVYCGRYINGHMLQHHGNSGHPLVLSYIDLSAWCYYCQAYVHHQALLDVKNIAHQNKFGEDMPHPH

Estrogen receptor beta [7] = target: T2, Estrogen receptor beta; assay: Agonist activity at ER-beta (unknown origin) transfected in HEK293T cells assessed as stimulation of transcriptional activity after 24 hrs by luciferase reporter gene assay; assay type: cell-based, HEK-293T
Estrogen receptor [8] = target: T1, Estrogen receptor; assay: Antagonist activity at ER-alpha (unknown origin) transfected in HEK293T cells assessed as inhibition of transcriptional activity after 24 hrs by luciferase reporter gene assay; assay type: cell-based, HEK-293T
Estrogen receptor [9] = target: T1, Estrogen receptor; assay: Binding affinity to human ER-alpha ligand binding domain after 2 hrs by competitive fluorometric binding assay
Estrogen receptor beta [10] = target: T2, Estrogen receptor beta; assay: Binding affinity to human ER-beta ligand binding domain after 2 hrs by competitive fluorometric binding assay

T2 sequence (Q92731 whole entry): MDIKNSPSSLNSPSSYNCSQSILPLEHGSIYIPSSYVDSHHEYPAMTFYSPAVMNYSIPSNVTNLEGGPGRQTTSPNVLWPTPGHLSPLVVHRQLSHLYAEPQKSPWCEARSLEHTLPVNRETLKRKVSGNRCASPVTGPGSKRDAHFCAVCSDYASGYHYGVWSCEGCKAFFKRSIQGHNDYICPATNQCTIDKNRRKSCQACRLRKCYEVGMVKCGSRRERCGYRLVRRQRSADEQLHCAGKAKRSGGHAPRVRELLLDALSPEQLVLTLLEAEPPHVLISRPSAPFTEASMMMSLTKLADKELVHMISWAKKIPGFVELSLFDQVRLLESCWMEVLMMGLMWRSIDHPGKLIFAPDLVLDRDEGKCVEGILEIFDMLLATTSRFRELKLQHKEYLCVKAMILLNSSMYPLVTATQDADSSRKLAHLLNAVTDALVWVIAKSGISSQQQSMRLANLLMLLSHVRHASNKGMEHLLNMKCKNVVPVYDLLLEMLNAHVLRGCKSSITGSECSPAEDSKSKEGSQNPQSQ
Sequence of Histone deacetylase 1 (Q13547 whole entry): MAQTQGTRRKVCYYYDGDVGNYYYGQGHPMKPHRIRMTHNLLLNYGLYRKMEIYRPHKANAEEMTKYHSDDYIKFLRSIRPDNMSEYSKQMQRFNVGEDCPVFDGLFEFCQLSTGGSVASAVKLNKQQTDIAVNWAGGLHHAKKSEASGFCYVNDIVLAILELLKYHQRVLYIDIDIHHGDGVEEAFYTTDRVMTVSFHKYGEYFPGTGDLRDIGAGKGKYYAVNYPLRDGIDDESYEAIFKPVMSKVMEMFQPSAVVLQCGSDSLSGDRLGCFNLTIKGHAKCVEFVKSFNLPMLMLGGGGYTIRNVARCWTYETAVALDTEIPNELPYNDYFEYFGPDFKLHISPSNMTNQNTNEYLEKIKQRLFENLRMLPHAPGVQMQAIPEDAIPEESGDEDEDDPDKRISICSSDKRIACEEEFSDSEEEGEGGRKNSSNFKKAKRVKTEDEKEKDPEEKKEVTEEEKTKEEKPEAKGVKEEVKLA

Compound | EC50 (Estrogen receptor [1]) [µM] | Efficacy (Estrogen receptor beta [2]) [%] | IC50 (MCF7) [µM] | IC50 (DU-145) [µM] | Efficacy [3] [%] | Efficacy (Estrogen receptor beta [4]) [%] | Efficacy [5] [%] | IC50 (Histone deacetylase 1) | IC50 [6] | IC50 (Histone deacetylase 1; read-out: IC50) [µM] | IC50 ([6]; read-out: IC50) [µM] | EC50 (Estrogen receptor beta [7]) [µM] | IC50 (Estrogen receptor [8]) [µM] | Ki (Estrogen receptor [9]) [µM] | Ki (Estrogen receptor beta [10]) [µM] | IC50 (Vero) [µM]
O=C(O)CCCCCCC(=O)Nc1ccc(C2=C(c3ccc(O)cc3)C3CC(S(=O)(=O)Oc4cccc5ccccc45)C2O3)cc1 (configuration not stated) |  | -13 | 4.7 | 48.6 | 14 | 15 | 5 | Not Active | Not Active |  |  |  |  |  |  | 
Cc1cccc(OS(=O)(=O)C2CC3OC2C(c2ccc(NC(=O)CCCCCCC(=O)O)cc2)=C3c2ccc(O)cc2)c1 (racemic) |  | -11 | 3.8 | 52.4 | 43 | 87 | -28 |  | Not Active | 2.98 |  |  |  |  |  | 
COc1ccc(OS(=O)(=O)C2CC3OC2C(c2ccc(NC(=O)CCCCCCC(=O)O)cc2)=C3c2ccc(O)cc2)cc1 (racemic) |  | 5 | 15.3 | 38.6 | 40 | 137 | 27 | Not Active |  |  | 4.17 |  | 116 |  |  | > 100
O=C(O)CCCCCCC(=O)Nc1ccc(C2=C(c3ccc(O)cc3)C3CC(S(=O)(=O)Oc4ccccc4O)C2O3)cc1 (racemic) |  | 37 | 27.9 | 27.7 | 24 | 87 | 12 |  |  |  |  |  | 0.14 |  |  | > 100
O=C(O)CCCCCCC(=O)Nc1ccc(C2=C(c3ccc(O)cc3)C3CC(S(=O)(=O)Oc4ccc(C(F)(F)F)cc4)C2O3)cc1 (racemic) |  | -12 | 24 | 77 | 10 | 136 | -51 | Not Active |  |  | 0.648 |  | 0.79 |  |  | > 100
Cc1cccc(C)c1OS(=O)(=O)C1CC2OC1C(c1ccc(NC(=O)CCCCCCC(=O)O)cc1)=C2c1ccc(O)cc1 (racemic) | 0.32 | -8 | > 100 | > 100 | 127 | 87 | 61 |  |  |  |  |  |  | > 5 | 0.971 | > 100
O=C(CCCCCCC(=O)Nc1ccc(C2=C(c3ccc(O)cc3)C3CC(S(=O)(=O)Oc4cccc5ccccc45)C2O3)cc1)NO (racemic) |  | 36 | 13.4 | 8.57 | 88 | 94 | -22 | Not Active |  |  | 0.03 |  |  | > 5 |  | > 100
O=S(=O)(Oc1ccccc1)[C@H]1C[C@H]2O[C@@H]1C(c1ccc(O)cc1)=C2c1ccc(O)cc1 (relative stereo) |  |  | 20.9 | > 100 |  |  |  | Not Active | Not Active |  |  |  |  |  |  | > 100

Continued, in another order:

EC50 (Estrogen receptor [1]) [µM] | Efficacy (Estrogen receptor beta [2]) [%] | IC50 (MCF7) [µM] | IC50 (DU-145) [µM] | Efficacy [3] [%] | Efficacy (Estrogen receptor beta [4]) [%] | Efficacy [5] [%] | IC50 (Histone deacetylase 1) | IC50 [6] | IC50 (Histone deacetylase 1; read-out: IC50) [µM] | IC50 ([6]; read-out: IC50) [µM] | EC50 (Estrogen receptor beta [7]) [µM] | IC50 (Estrogen receptor [8]) [µM] | Ki (Estrogen receptor [9]) [µM] | Ki (Estrogen receptor beta [10]) [µM] | Compound | IC50 (Vero) [µM]
0.001 | 3 | 19.1 | 19.3 | 111 | 91 | 16 |  |  |  |  |  |  |  |  | COC(=O)CCCCCCC(=O)Nc1cccc(OS(=O)(=O)C2CC3OC2C(c2ccc(O)cc2)=C3c2ccc(O)cc2)c1 (configuration not stated) | > 100
 | 19 | 18.9 | 58.3 | 45 | 94 | -21 |  |  | 0.282 | 8.11 | 0.53 | 0.92 |  |  | O=C(O)CCCCCCC(=O)Nc1ccc(C2=C(c3ccc(O)cc3)C3CC(S(=O)(=O)Oc4ccc5ccccc5c4)C2O3)cc1 (configuration not stated) | > 100
 | 36 | 66.4 | > 100 | 36 | 97 | -13 |  |  |  |  | 0.93 | 1.21 | 0.112 | 0.654 | O=C(O)CCCCCCC(=O)Nc1ccc(C2=C(c3ccc(O)cc3)C3CC(S(=O)(=O)Oc4ccccc4)C2O3)cc1 (racemic) | > 100
 | 8 | 60.5 | 80.8 | 36 | 111 | -6 |  |  |  |  | 0.52 | 1.08 |  | 0.0873 | Cc1ccc(OS(=O)(=O)C2CC3OC2C(c2ccc(NC(=O)CCCCCCC(=O)O)cc2)=C3c2ccc(O)cc2)cc1 (racemic) | > 100
 | 24 | 7.9 | > 100 | 43 | 117 | -3 |  |  | 0.022 | 5.01 | 0.38 | 0.46 |  |  | Cc1ccccc1OS(=O)(=O)C1CC2OC1C(c1ccc(NC(=O)CCCCCCC(=O)O)cc1)=C2c1ccc(O)cc1 (racemic) | > 100
3.69 | 105 | 3.6 | 23.8 | 108 | 120 | 77 | Not Active |  |  | 0.071 | 8.1 |  |  |  | O=C(O)CCCCCCC(=O)Nc1ccc(C2=C(c3ccc(O)cc3)C3CC(S(=O)(=O)Oc4cccc(O)c4)C2O3)cc1 (racemic) | > 100
 | 10 | 26.1 | > 100 | 37 | 102 | 9 |  |  |  |  |  | 0.64 | 3.87 |  | O=C(O)CCCCCCC(=O)Nc1ccc(C2=C(c3ccc(O)cc3)C3CC(S(=O)(=O)Oc4ccccc4C(F)(F)F)C2O3)cc1 (racemic) | > 100
1.14 | 21 | 17.1 | 11.3 | 101 | 91 | 33 | Not Active |  |  | 0.23 | 0.173 |  | > 5 |  | O=C(CCCCCCC(=O)Nc1ccc(C2=C(c3ccc(O)cc3)C3CC(S(=O)(=O)Oc4ccc(Br)cc4)C2O3)cc1)NO (racemic) | > 100
